Literature values as cited in patent US9908886B2 (Agency for Science, Technology and Research, priority 2012, dated 2018).
Entries after “also recorded” stand apart in the source; their conditions may differ.

Key:
[1] = system: nuclear beta-catenin in BC-CML cells; details: background section; cited from earlier work
[2] = system: CD34+ BC-CML primary cells; details: background section; including cells carrying T315I mutation; cited from earlier work
[3] = system: eIF4E phosphorylation in BC GMPs; details: background section; cited from earlier work
BC CD34+ CML cells = details: in vitro treatment of the cells; background section; cited from earlier work
[4] = system: patient-derived BC cells in NSG mice; details: in vivo treatment for three consecutive weeks; CGP57380 40 mg/kg/d, dasatinib 5 mg/kg/d; background section; cited from earlier work
[5] = system: TNF production by macrophage; details: TLR agonist stimulation; literature; cited from earlier work

## Nc1ncnc2n[nH]c(Nc3ccc(F)cc3)c12 [CGP57380]
[1]
  accumulation of active nuclear beta-catenin in BC GMPs: preventes accumulation of active nuclear beta-catenin
[2]
  ability of CD34+ BC cells to serially replate for more than 8 weeks in methylcellulose: impaired the ability of CD34+ BC cells
[3]
  eIF4E phosphorylation in BC GMPs: inhibited eIF4E phosphorylation
BC CD34+ CML cells
  ability of BC CD34+ CML cells to engraft NSG mice: retarded their ability to engraft NSG mice
[4]
  serial transplantation of BC cells in NSG mice at 16 weeks: prevented BC cells from serially transplanting NSG mice
[5]
  production / release of TNF by macrophage: inhibited by MNK kinases inhibitor CGP57380 in a dose dependant fashion; also recorded: inhibits the release of TNF alpha by macrophage
